{"source": "patent US20220267380A1", "about": "“Glycopeptides Increasing Lipid Synthesis” (TFCHEM, priority 2019, published 2022)", "key": {"[1]": {"system": "normal human dermal fibroblasts (NHDF)", "assay": "Signal transduction pathway analysis (Ingenuity Pathway Analysis, activation z-score)", "conditions": "10 mg/ml", "excerpt": "Signal transduction pathway analysis: the results were then processed with IPA (Ingenuity Pathway Analysis, Qiagen®) software to identify signal transduction pathways modulated by each treatment. This software takes into account the Fold Change values of each gene and, when there is enough information, the direction of modulation of the signal transduction pathways can be identified. The relevance of the effect of each treatment on a given pathway was quantified by z-score. The z-score predicts the directional change on that effect.\nA more advanced bioinformatics analysis was performed using the Ingenuity Pathway Analysis software (IPA from Qiagen®). This analysis allows the identification of the impacted signaling pathways and predicts their modulation."}, "[2]": {"system": "normal human dermal fibroblasts (NHDF)", "assay": "Identification of biological processes involved (DAVID / Gene Ontology functional annotation of modulated genes)", "conditions": "10 mg/ml, p-value≤0.05", "excerpt": "Gene Ontology database has been more specifically used for the data interpretation. DAVID functional annotation part was used to cluster modulated genes into significant biological processes. […] DAVID database uses the Gene Ontology consortium (http://www.geneontology.org) vocabularies (GO terms) to describe gene products in terms of their associated biological processes. Among them, only biological processes with p-value≤0.05 were taken into account.\nThe gene modulations of NHDF treated with compound 1 (10 mg/ml), compound 3 (10 mg/ml) and compound 4 (10 mg/ml) vs control were analysed to cluster modulated genes into significant biological processes (p-value≤0.05)."}}, "data": [{"smiles": "C[C@H](NC(=O)[C@H](C)NC(=O)[C@@H](N)CCCCNCC(F)(F)[C@]1(O)O[C@H](CO)[C@H](O)[C@H](O)[C@H]1O)C(=O)O", "note": "[Compound 1]", "values": [{"measurement": "result of the analysis of signaling pathways", "setting": "[1]", "result": "predictive activation of the lipid synthesis and the cholesterol biosynthetic process at a transcriptional level"}, {"measurement": "Activation z-score, synthesis of cholesterol", "setting": "[1]; positive = stimulation", "result": 2.169}, {"measurement": "Activation z-score, synthesis of lipid", "setting": "[1]; positive = stimulation", "result": 2.668}, {"measurement": "main biological processes involved", "setting": "[2]", "result": "the lipid metabolic process and the cholesterol biosynthetic process"}]}, {"smiles": "CC(=O)N(CCCC[C@H](N)C(=O)O)CC(F)(F)[C@]1(O)O[C@H](CO)[C@H](O)[C@H](O)[C@H]1O", "note": "[Compound 4]", "values": [{"measurement": "result of the analysis of signaling pathways", "setting": "[1]", "result": "predictive activation of the fatty acid and lipid synthesis and a stimulation of the adipocytes differentiation"}, {"measurement": "main biological processes involved", "setting": "[2]", "result": "the lipid metabolic process and the cholesterol biosynthetic process but also the ceramide metabolic process"}]}, {"smiles": "N[C@@H](CCCCNCC(F)(F)[C@]1(O)O[C@H](CO)[C@H](O)[C@H](O)[C@H]1O)C(=O)O", "note": "[Compound 3]", "values": [{"measurement": "result of the analysis of signaling pathways", "setting": "[1]", "result": "predictive activation of the lipid synthesis and the cholesterol biosynthetic process at a transcriptional level"}, {"measurement": "Activation z-score, Metabolism of cholesterol", "setting": "[1]; positive = stimulation", "result": 1.083}, {"measurement": "Activation z-score, synthesis of cholesterol", "setting": "[1]; positive = stimulation", "result": 0.399}, {"measurement": "Activation z-score, synthesis of lipid", "setting": "[1]; positive = stimulation", "result": 1.002}, {"measurement": "main biological processes involved", "setting": "[2]", "result": "the lipid metabolic process and the cholesterol biosynthetic process"}]}]}
